Reference: patent US20190077774A1, “PEROXISOME PROLIFERATOR-ACTIVATED RECEPTOR AGONISTS” (City of Hope, priority 2017, published 2019)
Entries after “also recorded” stand apart in the source; their conditions may differ.

How the values were obtained:
Format in all cases: in vivo
C57Bl/6J female mice [1] = experiment: Serum triglyceride and lipid effects in C57Bl/6J female mice
Protocol: FIG. 5. Ligand Screening Results: DY series compounds and controls administered once to C57Bl/6J female mice at 8 weeks of age. Mice were treated at 3 mg/kg for all compounds except WY14643 (100 mg/kg). Compounds gavaged at 0900; mice sacrificed 24 h later. Ordered by degree of effect on triglyceride lowering. According to our screening test, DY series compounds reduce triglycerides.
(§1) Next, we would like to investigate the therapeutic potential of DY121 to see if it could be candidate for treating NAFLD/NASH. Note that the pathogenesis of NASH has not yet been fully elucidated so far; however, the ‘two-hit’ theory is widely accepted. The first hit is the accumulation of fatty acids in the liver to cause steatosis. […] The newly produced PPARα agonist DY121 and its analogs, as well as WY100=WY14643 and GW3 (GW7647), were evaluated in C57Bl/6J female mice for their ability to alter serum triglyceride, liver gene expression, and glucose. Fibric acid derivatives (100 mg/kg/day) was used as a control, WY100 (WY14, 643, 100 mg/kg/day), GW3 (GW7647-positive control, 3 mg/kg/day), DY121 (˜3 mg/kg/day), respectively. DY series compounds and controls administered once to C57Bl/6J female mice at 8 weeks of age. Mice were treated at 3 mg/kg for all compounds except WY14643 (100 mg/kg).

[2] = system: PPARα target genes in the liver; experiment: Liver gene expression of PPARα targets in treated mice (RT-qPCR)
From the text: FIG. 6. […] Data in same order as triglyceride suppression (FIG. 5). apo CIII and LPL expression inversely correlate with triglyceride suppression for many, but not all, compounds. ACOX1 and Cyp4A3 expression correlate with triglyceride suppression for many, but not all, compounds.
The following oligonucleotide primers were used to amplify insertion sequences: for PPARα, FW-5′-[…]-3′ (SEQ ID NO:1) and Rev-5′-[…]-3′ (SEQ ID NO:2); for RXRα, FW-5′ […]-3′ (SEQ ID NO:3) and Rev-5′-[…]-3′ (SEQ ID NO:4). It has been well established that PPARα agonists fibrates reduce plasma triglycerides largely by inducing hepatic PPARα-mediated transcription of key proteins in hepatic long-chain fatty acid […], such as CPT1 (carnitine palmitoyltransferase-1). DY121 promoted the expression of PPARα, CPT1, and LPL involved in free fatty acid β-oxidation. The mRNA expressions of the PPARα-regulated genes CPT-Ia and ACADM were measured by real-time quantitative-PCR (RT-qPCR). […] A structural specificity of DY121 may be responsible for this regulation. PPARα is predominantly expressed in liver. PPARα modulates fatty acid catabolism in the liver. We next measured the mRNA expression of PPARα target genes in the liver. PPARα agonists exert their actions and attributed to the activation of PPARα which in turn effects an increase in LPL (lipoprotein lipase) gene expression and transrepression of apoC-III (apolipoprotein C-III). Activation of PPARα by its modulators can increase PPARα levels and activate PPARα pathways, leading to increased fatty-acid oxidation and reduction of oxidative stress. DY121 and its analogs induced the expression of PPARα-regulated genes involved in lipid, glucose, and cholesterol metabolism, such as ACOX1 (acyl-CoA oxidase) and Cyp4A3 (cytochrome P450 gene subfamily). Members of the CYP4A gene subfamily catalyze the oxygenation of biologically important fatty acids.
as §1, with “DY series compounds and controls administered once to C57Bl/6J female mice at 8 weeks of age. Mice were treated at 3 mg/kg for all compounds except WY14643 (100 mg/kg).” left out

C57Bl/6J female mice [3] = experiment: Serum triglyceride and lipid effects in C57Bl/6J female mice; remark: listed apart in the source

`COc1ccc(Cn2c(CCCc3ccc(OC(C)(C)C(=O)O)cc3)nn(Cc3ccc(C)cc3)c2=O)cc1` [10a, 2-(4-{3-[4-(4-Methoxy-benzyl)-1-(4-methyl-benzyl)-5-oxo-4,5-dihydro-1H[1,2,4]triazol-3-yl]-propyl}-phenoxy)-2-methyl-propionic acid] was tested, and the “hepatic TG accumulation” value (C57Bl/6J female mice [1]; 3 mg/kg DY121, WY14643 100 mg/kg) was “suppressed; also recorded: more apparent”, the “serum triglyceride (TG) concentrations” value (C57Bl/6J female mice [1]; DY121-treated mice vs control) was “significantly decreased” and the “expression of PPARα, CPT1, and LPL” value ([2]; RT-qPCR) was “promoted”. For the same compound, the “expression of PPARα-regulated genes such as ACOX1 and Cyp4A3” value ([2]; RT-qPCR) was “induced”, the “liver CPT-Ia expression” value ([2]; chronic (>3 d) treatment (FIG. 17)) was “upregulated” and the LPL expression ([2]; liver, chronic treatment (FIG. 11)) was “enhanced expression of LPL”. For the same compound, the ACOX1 expression ([2]; liver, chronic treatment (FIG. 12)) was “enhanced by PPARα activation, most consistently”, the Cyp4A3 expression ([2]; liver, chronic treatment (FIG. 13)) was “consistently” and the apoCIII expression ([2]; liver, chronic treatment up to 7 days (FIG. 11)) was “significantly suppressed expression of apoCIII at each time point”. The ACADM expression ([2]; time course (FIG. 18)) was “upregulates”, the “CYP4A3 mRNA in the liver” value ([2]; wild-type and PPARα knockout mice) was “enhanced levels of CYP4A3 mRNA in the liver of wild-type but not PPARα knockout mice” and the “triglycerides, time course” value (C57Bl/6J female mice [3]; 24 h vs 72 h, wild type and PPARα-knockout mice (FIG. 8)) was “maintained over 72 h in wild type but not PPARα-knockout mice”. For the same compound, the “triglycerides, chronic treatment” value (C57Bl/6J female mice [3]; 7 day period (FIG. 10)) was “suppressed triglycerides over the entire 7 day period”, the “dose-response of triglyceride suppression” value (C57Bl/6J female mice [3]; FIG. 7, listed as DY121) was “Dose-response suppression; also recorded: dose-dependent anti-dyslipidemic effects” and the “FFA and glycerol time course” value (C57Bl/6J female mice [3]; FIG. 14 and 15) was “early increase (lipolytic burst) followed by decline”.
